EC50 data for one compound are collected here from BindingDB's records for patent US9428501 (Astellas Pharma Inc, 2016).

For this assay, the target named is 5'-AMP-activated protein kinase catalytic subunit alpha-2 (Homo sapiens, UniProt P54646). In words: Activation Assay. The following applies: 37 °C. On the procedure:
After the incubation, 20 μl of a 40% glyoxal solution (Nacalai Tesque) was added to each well, and then cells were fixed by leaving to stand at room temperature for 30 minutes. Thereafter, the supernatant was removed by centrifuging the plate, and then 0.1% Triton X-100-containing Phosphate-Buffered Saline (PBS) was added to each well by 20 followed by incubating at room temperature for 10 minutes. […] The blocking solution was removed by centrifuging, with the exception of the blocking solution by centrifugation, and then a blocking solution which was diluted such that the amount of phosphorylation antibody (manufactured by Cell Signaling Technology, Inc) of ACC Ser79 as a primary antibody is 1/500 was added to each well by 10 followed by leaving to stand at 4° C. overnight. The following day, the reaction liquid was removed by centrifuging the plate, and then 0.05% Tween-20-containing Tris-Buffered Saline (TBS) (manufacture by Thermo Scientific Inc.; used in 1× in which 20×TBS Tween-20 was diluted with ion-exchange water) was added to each well by 25 followed by washing each well by centrifugal removal. The washing of each well was repeated for a total of 3 times. […]

One may read the EC50 as the concentration that produces a half-maximal response. Low readings indicate an effect from little substance, high ones a need for much substance.

Structures are written as SMILES.

5'-AMP-activated protein kinase catalytic subunit alpha-2, sequence (P54646 whole entry): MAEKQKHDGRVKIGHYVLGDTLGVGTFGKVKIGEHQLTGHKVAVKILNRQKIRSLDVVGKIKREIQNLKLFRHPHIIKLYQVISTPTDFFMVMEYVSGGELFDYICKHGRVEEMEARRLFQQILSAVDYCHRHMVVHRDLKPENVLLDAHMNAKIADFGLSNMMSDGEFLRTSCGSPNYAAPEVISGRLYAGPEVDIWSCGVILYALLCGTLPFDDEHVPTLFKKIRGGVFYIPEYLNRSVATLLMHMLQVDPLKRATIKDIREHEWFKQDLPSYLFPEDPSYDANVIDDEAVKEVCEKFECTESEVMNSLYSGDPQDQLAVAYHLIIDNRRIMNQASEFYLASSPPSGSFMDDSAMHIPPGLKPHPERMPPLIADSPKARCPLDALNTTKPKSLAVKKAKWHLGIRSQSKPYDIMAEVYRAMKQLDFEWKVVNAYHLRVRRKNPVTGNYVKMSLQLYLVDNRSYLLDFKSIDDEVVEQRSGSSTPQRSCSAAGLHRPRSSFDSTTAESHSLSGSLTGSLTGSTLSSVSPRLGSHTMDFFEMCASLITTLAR

Turning to `CCOc1cnc(CN2CCC(c3ccc4cc(C(=O)N5CCN(Cc6ccc(C#N)cc6)CC5)n(C)c4c3)CC2)cn1` [US9428501, 69], a half-maximal effect (EC50) was put at 1.8 nM.
